Measurements taken from patent US11259522B2, “Control of resistant pests” (priority 2017, dated 2022).
≈ marks a conversion by molar mass, not a printed value. Where “and” joins values, the source holds several entries; their conditions need not be identical. Equal values may be shown once. Read-outs that look alike come from different tables or passages of the source.

Legend:
[1] = tested on: Aedes aegypti Liverpool strain (insecticide susceptible, LVP) L3 larvae; assay: Mosquito larval dose response assay, LVP strain; details: read-out: Lethal Concentration (LC50) LVP Strain
[2] = tested on: Aedes aegypti PRS Puerto Rican strain (synthetic pyrethroid resistant) L3 larvae; assay: Mosquito larval dose response assay, PRS strain; details: read-out: Lethal Concentration (LC50) PRS Strain
[3] = tested on: Rhipicephalus microplus larvae, susceptible non-resistant field strain (NRFS); assay: Larval packet test (LPT), cattle tick larvae, susceptible strain; assay type: in vivo; details: for LC50 (ppm) / LC99 (ppm): NRFS, 24 hours, Probit analysis; for mortality at 1250 ppm: 1,250 ppm
Method: The larval packet test (LPT) is a modification of that first described by Stone and Haydock (1962, Bull. Entomol. Res., 563-578, http://dx.doi.org/10.1017/5000748530004832X) for evaluation of field resistance in cattle tick (Rhipicephalus microplus) larvae.
The first LPT assay was conducted to identify the potential range of flavesone acaricidal activity against larvae of a susceptible non-resistant field strain (NRFS) of R. microplus as a reference strain using a wide range of concentrations (1 in 10 in series).
The test compound, flavesone, 6-isobutyryl-2,2,4,4-tetramethylcyclohexane-1,3,5-trione, 96.7%, was used. As its volatility/evaporative properties were unknown, the LPT method was modified to incorporate the use of suitably-sized polyethylene plastic sheets to envelop the larval packets, minimizing exposure of the test active to the atmosphere.
In addition, the use of the solvent trichloroethylene (TCE) was removed to avoid the time required for evaporation in the preparation of test papers. The test solutions were prepared in olive oil only at the diluent and the papers immediately enveloped in the plastic sheets and sealed with bulldog clips to minimize evaporation.
A stock solution with a concentration of 100,000 ppm (10%) flavesone was prepared in olive oil as the diluent (1.035 mL flavesone (96.7%) to 8.965 mL olive oil) and then further diluted 1 in 10 in series to also give 10,000 ppm, 1,000 ppm, 100 ppm, 10 ppm and 1 ppm concentration. The negative control was olive oil only. No positive control was included in this experiment. Due to the viscosity of the olive oil, all solutions were prepared using reverse pipetting technique.
(§1) Filter papers (75 mm×85 mm Whatman® No. 541), with grid patterns, were impregnated on ½ of the paper with 225 μL of each solution using a micro-pipette and immediately folded in half, enveloped in polyethylene plastic and sealed with 3 bulldog clips. The impregnated papers were kept at room temperature on aluminium trays for a minimum of 60 minutes to allow for dispersal across the grid pattern of the paper prior to aliquoting of larvae. The packets were prepared in duplicate for each concentration, including the negative control.
An 8 dram vial containing approximately 20,000 hatched 7-21 day old NRFS larvae (about 1 g eggs) was opened and set up on a moated tray with a small amount of detergenated water, about 15 to 30 minute before use. Only larvae that migrated to the top of the vial were used in the assay.
(§2) Aliquots of approximately 100 larvae were placed into each packet using plastic disposable forceps and the packets resealed and incubated and 27° C. and 85% relative humidity (RH).
(§3) After 24 hours, the larval packets were opened and the numbers of dead and live larvae were counted under a magnification lamp. Percentage mortality was calculated and, where applicable, corrected using Abbott's Formula (Abbott, 1925, J. Economic Entomology, 18:256-257): […]
(§4) LC50 and LC99 values were determined by Probit mortality vs log concentration analysis. Probit values were derived from “Transformation of Percentages to Probit's Tables” published by Fisher R. A. and Yates F. (1938).
(§5) The LPT Assay of Example 1 was repeated using a narrow range of concentrations, 1 in 2 series, of flavesone to determine LC50 and LC99 values against the susceptible NRFS and the multi-resistant Tiaro reference strain.
The stock solution of flavesone (100,000 ppm) was diluted 1 in 10 with olive oil (1 mL to 9 mL diluent) to give 10,000 ppm, which was then further diluted 1 in 2 in series (5 mL to 5 mL diluent) to give 5,000 ppm, 2,500 ppm, 1,250 ppm, 625 ppm, 312.5 ppm and 156.25 ppm concentrations. […]

[4] = tested on: Rhipicephalus microplus larvae, multi-resistant Tiaro reference strain; assay: Larval packet test (LPT), cattle tick larvae, multi-resistant strain; assay type: in vivo; details: Example 2, 24 hours
Method: as §1, §2, §3, §4, §5
The Tiaro strain of R. microplus comprises of about 30% fluazuron, 60.6% cypermethrin (SP), 57.6% flumethrin (SP), 16.2% amitraz (amidine), 11.3% DDT, 9.3% chlorpyrifos (OP) and 2.4% dieldrin resistance [2014 acaricide resistance profiling].
The stock solution of flavesone (100,000 ppm) was diluted 1 in 10 with olive oil (1 mL to 9 mL diluent) to give 10,000 ppm, which was then further diluted 1 in 2 in series (5 mL to 5 mL diluent) to give 5,000 ppm, 2,500 ppm, 1,250 ppm, 625 ppm, 312.5 ppm and 156.25 ppm concentrations.
For the preparation of the positive control, cypermethrin, a stock solution of a concentration of 10,000 ppm was prepared in 2:1 trichloroethylene (TCE)/olive oil as the solvent ([…] cypermethrin, 94.8% purity, to 10 mL solvent) and then further diluted 1 in 2 in series (5 mL to 5 mL solvent) to also give 5,000 ppm, 2,500 ppm, 1,250 ppm, 625 ppm, 312.5 ppm and 156.25 ppm.
The flavesone papers were prepared as in Example 1.
The cypermethrin papers were impregnated with 670 μL of each solution using a micro-pipette and hung on a rack in a fume-hood to allow papers to dry (evaporation of TCE) for a minimum of 60 minutes. The papers were then folded in half and sealed with three bulldog clips, placed on aluminium trays prior to aliquoting the larvae. All packets were prepared in duplicate.
A dose-response relationship was determined at 24 hours contact exposure.
Concentrations of 1,250 ppm, 625 ppm and 312.5 ppm flavesone concentrations prepared for Example 3 were used on the same day of preparation. Duplicate papers were prepared for both the NRFS and Tiaro strains (including negative controls) as described in Example 2.
Mortality was assessed at 48 hours and LC50 and LC99 values were determined by Probit mortality vs log concentration analysis.

[5] = tested on: Halotydeus destructor susceptible population; assay: Coated plastic vial bioassay, redlegged earth mite, susceptible population; assay type: in vivo; details: for LC50: Halotydeus destructor, read-out: LC50 (mg a.i./L)
Method: The efficacy of flavesone against H. destructor was assessed using the glass vial technique developed by Hoffmann et al. (1997, Exp. Appl. Acarol., 21:151-162), adapted for plastic vials. A susceptible population of mites was collected from capeweed (Arctotheca calendula) at a Victorian site (37° 40′33″S, 145° 07′ 45″E) that had no known history of insecticide application. Following collection, samples were stored in small plastic containers with leaf material and paper towel to absorb excess moisture. Containers were kept at 4° C. prior to testing.
(§6) The test compositions included 0.1% Tween 20 non-ionic surfactant to aid the spread of insecticides when coating plastic vials. This concentration of Tween 20 has been previously shown to have no toxic effect on H. destructor. For each insecticide concentration tested, 3, 10, 30, 100, 300, 1000, 3000 and 10000 mg a.i./L (ppm), approximately 10 mL of solution was poured into a 15 mL plastic vial and swirled to ensure a complete coating, with excess liquid removed. Eight vials were coated per concentration and were left to dry overnight. Control vials were treated in the same way but with water used in place of test composition.
Eight susceptible H. destructor mites were then placed into each vial along with a leaf of common vetch (Vicia sativa). The leaf was added to provide food and increase humidity. Vials were then sealed with a lid and placed at 18° C. After 4, 6, 8 and 24 hours of exposure, the mites were scored as alive (moving freely), incapacitated (inhibited movement), or dead (no movement over a 5 second period). […]
(§7) The data produced in the assays were assessed for concentrations that caused 50, 90 and 99% mortality (lethal concentration, LC), together with 95% confidence intervals (CIs) and were estimated from observations of mortality after 24 hours exposure using a binomial logistic regression (Robertson & Preisler, 1992, Pesticide Bioassays with Arthropods. CRC: Boca Raton; Venables & Ripley, 2002, Modern Applied Statistics with S. Springer: New York). Population differences were tested by comparing the change in model deviance with and without the population factor (different regression intercepts for each population). Differences in regression slopes between populations were tested by comparing the change in model deviance with and without the population×dose interaction term. The resistance ratio of the insecticide-resistant population was estimated as the ratio of its LC50 to that of the susceptible population. All analyses were performed using R 3.3. (R Core Team 2017, R: A language and environment for statistical computing. R Foundation for Statistical Computing, Vienna, Austria. http://www.R-project.org).

[6] = tested on: Halotydeus destructor resistant population (synthetic pyrethroid resistance); assay: Coated plastic vial bioassay, redlegged earth mite, resistant population; assay type: in vivo; details: 24 hours exposure; for LC50: Halotydeus destructor, 24 h
Method: as §6
Eight susceptible H. destructor mites were then placed into each vial along with a leaf of common vetch (Vicia sativa). The leaf was added to provide food and increase humidity. Vials were then sealed with a lid and placed at 18° C. After 4, 6, 8 and 24 hours of exposure, the mites were scored as alive (moving freely), incapacitated (inhibited movement), or dead (no movement over a 5 second period).
The resistant population of H. destructor was collected from a lucerne paddock in the Upper South-East district of South Australia, where resistance to synthetic pyrethroids was confirmed in late 2016.
as §7

[7] = tested on: Rhyzopertha dominica strain QRD1440 (resistant to OP protectants and pyrethroids); assay: Grain protectant bioassay on treated wheat, resistant lesser grain borer; details: Example 5, QRD1440, replicates A, B, C; for F1 Progeny count No. dead/total: further 6 weeks
[8] = Rhipicephalus microplus, 24 h, Example 2
[9] = Rhipicephalus microplus, 24 h, Example 3
[10] = Susceptible population, 24 hours exposure

Structure (SMILES): CCOC(=O)CC(SP(=S)(OC)OC)C(=O)OCC (centres unmarked) [Malathion, malathion]
- LC50 ([1]; 24 h): 0.11 µg/mL (≈ 0.334 µM)
- LC50 ([1]; 48 h): 0.0389 µg/mL (≈ 0.118 µM)
- LC50 ([1]; 72 h): 0.0298 µg/mL (≈ 0.0901 µM)
- LC50 ([2]; 24 h): 0.291 µg/mL (≈ 0.88 µM)
- LC50 ([2]; 48 h): 0.177 µg/mL (≈ 0.535 µM)
- LC50 ([2]; 72 h): 0.127 µg/mL (≈ 0.384 µM)

Structure (SMILES): CC1(C)C(C=C(Cl)Cl)C1C(=O)OC(C#N)c1cccc(Oc2ccccc2)c1 (centres unmarked) [Cypermethrin, cypermethrin, reference compound]
- LC50 (ppm) ([3]; Example 2): 128 ppm
- LC99 (ppm) ([3]; Example 2): 540 ppm
- LC50 (ppm) ([3]; Example 3): 112 ppm
- LC99 (ppm) ([3]; Example 3): 317 ppm
- mortality at 2.5 ppm ([3]; Rhipicephalus microplus, 24 h, Example 2, 2.500 ppm): 100%
- mortality at 156.25 ppm [3, 8]: 67.3%
- mortality at 312.5 ppm [3, 8]: 89%
- mortality at 625 ppm [3, 8]: 99.6%
- mortality at 1250 ppm [3, 8]: 100%
- mortality at 5000 ppm ([3]; Rhipicephalus microplus, 24 h, Example 2, 5,000 ppm): 100%
- mortality at 10000 ppm ([3]; Rhipicephalus microplus, 24 h, Example 2, 10,000 ppm): 100%
- mortality at 39.0625 ppm ([3]; Rhipicephalus microplus, 24 h, Example 3, 39.0625 ppm): 0%
- mortality at 78.125 ppm ([3]; Rhipicephalus microplus, 24 h, Example 3, 78.125 ppm): 20.6%
- mortality at 156.25 ppm [3, 9]: 79.6%
- mortality at 312.5 ppm [3, 9]: 99.2%
- mortality at 625 ppm [3, 9]: 100%
- mortality at 1250 ppm [3, 9]: 100%
- LC50 (ppm) ([4]; Tiaro, Probit analysis): 3082 ppm
- LC99 (ppm) ([4]; Tiaro, Probit analysis): >10,000 ppm
- mortality at 2.5 ppm ([4]; Rhipicephalus microplus, 2.500 ppm): 59.7%
- mortality at 156.25 ppm ([4]; Rhipicephalus microplus, 156.25 ppm): 0.56%
- mortality at 312.5 ppm ([4]; Rhipicephalus microplus, 312.5 ppm): 20.4%
- mortality at 625 ppm ([4]; Rhipicephalus microplus, 625 ppm): 21.9%
- mortality at 1250 ppm ([4]; Rhipicephalus microplus, 1,250 ppm): 20.9%
- mortality at 5000 ppm ([4]; Rhipicephalus microplus, 5,000 ppm): 62.2%
- mortality at 10000 ppm ([4]; Rhipicephalus microplus, 10,000 ppm): 66.8%

Structure (SMILES): CCOP(=S)(OCC)Oc1nc(Cl)c(Cl)cc1Cl [Chlorpyrifos, chlorpyrifos, reference compound]
- LC50 ([5]; 24 h): 0.21 µg/mL (≈ 0.599 µM)
- LC90 (mg a.i./L) [5, 10]: 0.76 mg a.i./L
- LC99 (mg a.i./L) [5, 10]: 3.18 mg a.i./L
- resistance ratio (LC50 of resistant population to that of susceptible population) [6]: 6.5 times
- LC50 ([6]; read-out: LC50 (mg a.i./L), Resistant population): 1.37 µg/mL (≈ 3.91 µM)
- LC90 (mg a.i./L) ([6]; Resistant population): 7.76 mg a.i./L
- LC99 (mg a.i./L) ([6]; Resistant population): 51.56 mg a.i./L
- F1 Progeny count No. dead/total ([7]; 5 ppm on wheat): 2/470 and 3/172 and 3/355
- 14 Day adult mortality No. dead (total) ([7]; 5 ppm on wheat): 0/50 (2×) and 1/50
- F1 Progeny count No. dead/total ([7]; 10 ppm on wheat): 1/350 and 0/317 and 2/232
- 14 Day adult mortality No. dead (total) ([7]; 10 ppm on wheat): 0/50

Structure (SMILES): Cc1c(COC(=O)[C@@H]2[C@H](/C=C(\Cl)C(F)(F)F)C2(C)C)cccc1-c1ccccc1 (racemic) [Bifenthrin, bifenthrin]
- LC50 [5, 10]: 0.04 µg/mL (≈ 0.0946 µM)
- LC90 (mg a.i./L) [5, 10]: 2.66 mg a.i./L
- LC99 (mg a.i./L) [5, 10]: 233.10 mg a.i./L
- resistance ratio (LC50 of resistant population to that of susceptible population) [6]: about 3,500 times
- LC50 ([6]; Resistant population, read-out: LC50 (mg a.i./L)): 144 µg/mL (≈ 340 µM)
- LC90 (mg a.i./L) ([6]; Resistant population): 5.4 × 10^5 mg a.i./L
- LC99 (mg a.i./L) ([6]; Resistant population): 4.3 × 10^9 mg a.i./L
